The source of these data is article PMC3933693, “Novel Inhibitors of Mitochondrial sn-Glycerol 3-phosphate Dehydrogenase” (PLoS ONE, 2014).

Data set [1] has as its target T1, outer ubiquinone-binding site of complex III (site IIIQo) (Rattus norvegicus, UniProt P00159+P20788).
T1 construct: from tissue; host or cells: skeletal muscle mitochondria
Description: Site-specific H2O2 production from site IIIQo in skeletal muscle mitochondria. To be noted: primary screen, ∼2.5 µM, average of duplicates; 5 mM succinate. It counts as biochemical. In a few lines: (§1)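 Isolated rat skeletal muscle mitochondria; H2O2 read by Amplex UltraRed with added SOD and HRP. Site IF/DH: 5 mM glutamate, 5 mM malate, 4 µM rotenone. Site IIF: palmitoylcarnitine or succinate with rotenone/antimycin A/myxothiazol. Site IIIQo: succinate, rotenone, antimycin A. Screen at 2.5 µM, normalised as % change from DMSO.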

The test system of another data set is cortical synaptosomes. Description: Synaptosomal respiration (Seahorse XF24). It counts as cell-based, mouse. The settings on record: 100 µM iGP-1, 0.5 mM aminooxyacetate. As for the experimental part:
Synaptosomal respiration was tested in the Seahorse XF24 using published protocols, [41]. Synaptosomes (20 or 25 µg protein) were attached to polyethyleneimine and Geltrex-coated Seahorse plates by centrifugation in ionic medium, [41] containing 10 mM glucose. Attachment buffer was carefully replaced with ionic buffer containing DMSO, 100 µM iGP-1, 0.5 mM aminooxyacetate, or iGP-1 with aminooxyacetate, and either 10 mM pyruvate or 15 mM glucose. Plates were equilibrated for 20 min at 37°C then loaded into the instrument followed by measurement of basal respiration and injection of 5 µM FCCP (to induce maximal, uncoupled respiration) with 4 µg ⋅ mL^−1 oligomycin (to prevent compensatory reversal of ATP synthase). In some experiments, 10 mM oxamate was added with the FCCP/oligomycin to minimize regeneration of cytosolic NAD^+ by lactate dehydrogenase. Inhibition of the malate-aspartate shuttle was defined as the difference between maximal rates ± aminooxyacetate, expressed as % of control. Inhibition of the glycerol phosphate shuttle was the difference between maximal rates with aminooxyacetate ± iGP-1, as % of control.

Data set [2] deals with T2, flavin site of complex II (site IIF) (Rattus norvegicus, UniProt Q920L2).
T2 construct: from tissue; host or cells: skeletal muscle mitochondria
As to the kind of experiment: Site-specific H2O2 production from site IIF in skeletal muscle mitochondria. To be noted: primary screen, ∼2.5 µM, average of duplicates; palmitoylcarnitine. It counts as biochemical. Put shortly: as §1

For data set [3], the target named is T3, purified rabbit muscle cGPDH (Oryctolagus cuniculus, UniProt P08507).
T3 construct: Activity of purified rabbit muscle cGPDH was measured as described by the manufacturer; purchased; host or cells: rabbit muscle
T3 sequence (P08507 1-349): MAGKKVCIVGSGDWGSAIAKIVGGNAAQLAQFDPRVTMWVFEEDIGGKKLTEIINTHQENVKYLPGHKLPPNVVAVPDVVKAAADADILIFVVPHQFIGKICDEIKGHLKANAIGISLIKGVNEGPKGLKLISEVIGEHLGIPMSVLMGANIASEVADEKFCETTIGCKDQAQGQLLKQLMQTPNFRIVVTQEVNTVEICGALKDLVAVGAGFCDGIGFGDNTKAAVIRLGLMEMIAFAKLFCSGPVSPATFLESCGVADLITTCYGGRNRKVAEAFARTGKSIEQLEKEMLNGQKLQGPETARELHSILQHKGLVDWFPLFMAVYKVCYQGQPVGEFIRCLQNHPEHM
As to the kind of experiment: cGPDH enzymatic activity (NADH oxidation in the presence of DHAP). It counts as biochemical. The settings on record: Fig. 5. As for the experimental part:
The effects of small-molecule inhibitors on cGPDH and mGPDH enzymatic activity were tested according to established procedures. Activity of purified rabbit muscle cGPDH was measured as described by the manufacturer as the rate of oxidation of NADH in the presence of DHAP on the Varian fluorimeter (λex = 365 nm, λem = 450 nm). Activity of cGPDH in frozen-thawed synaptosomes was measured at 37°C in a BMG Labtech PHERAstar Plus microplate reader as the linear rate of change in NADH absorbance (λ = 340 nm) specific to the addition of 2.5 mM DHAP and insensitive to 4 µM rotenone. Rates were converted to nmol NADH using an extinction coefficient of 6.22 mM^−1 ⋅ cm^−1 and a calculated pathlength of 0.6 cm.

Data set [4] deals with skeletal muscle mitochondria. Description: Mitochondrial membrane potential (ΔΨm, TMRM) powered by glutamate plus malate. It counts as biochemical, rat.
Data set [5] relates to flavin mononucleotide site of complex I (site IF) plus matrix NAD-linked dehydrogenases (site IF/DH). Description: Site-specific H2O2 production from site IF/DH in skeletal muscle mitochondria. It counts as biochemical, rat. The settings on record: primary screen, ∼2.5 µM, average of duplicates. Put shortly:
as §1

T2 sequence (Q920L2 35-656): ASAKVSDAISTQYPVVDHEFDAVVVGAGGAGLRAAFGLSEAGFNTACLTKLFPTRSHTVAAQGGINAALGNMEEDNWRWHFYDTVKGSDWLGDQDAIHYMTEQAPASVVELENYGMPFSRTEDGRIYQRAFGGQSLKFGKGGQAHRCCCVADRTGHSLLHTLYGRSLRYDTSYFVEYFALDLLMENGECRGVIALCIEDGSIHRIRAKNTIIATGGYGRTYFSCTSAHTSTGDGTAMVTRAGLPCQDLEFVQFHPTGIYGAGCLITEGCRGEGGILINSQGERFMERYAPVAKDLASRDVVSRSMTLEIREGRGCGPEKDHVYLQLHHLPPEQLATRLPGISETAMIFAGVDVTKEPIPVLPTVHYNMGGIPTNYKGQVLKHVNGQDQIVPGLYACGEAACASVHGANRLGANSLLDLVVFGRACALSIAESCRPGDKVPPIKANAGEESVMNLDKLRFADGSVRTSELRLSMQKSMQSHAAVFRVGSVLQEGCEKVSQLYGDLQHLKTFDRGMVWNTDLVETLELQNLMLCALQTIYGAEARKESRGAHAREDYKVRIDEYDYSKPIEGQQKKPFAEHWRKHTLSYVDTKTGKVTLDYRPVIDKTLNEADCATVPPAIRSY
T2 sequence (P21913 31-282 partner): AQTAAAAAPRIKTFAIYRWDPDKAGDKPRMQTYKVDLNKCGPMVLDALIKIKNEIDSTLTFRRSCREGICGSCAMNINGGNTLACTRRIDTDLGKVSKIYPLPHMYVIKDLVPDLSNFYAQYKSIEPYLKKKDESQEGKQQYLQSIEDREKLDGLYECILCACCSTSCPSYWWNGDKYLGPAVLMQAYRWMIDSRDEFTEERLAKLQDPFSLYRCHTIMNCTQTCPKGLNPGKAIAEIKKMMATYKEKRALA
T2 sequence (Q641Z9 30-169 partner limits assumed): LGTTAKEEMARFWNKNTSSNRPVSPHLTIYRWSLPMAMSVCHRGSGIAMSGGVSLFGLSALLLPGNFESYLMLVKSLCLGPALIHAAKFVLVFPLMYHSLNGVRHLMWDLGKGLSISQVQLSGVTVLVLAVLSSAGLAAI
T2 sequence (Q6PCT8 57-159 partner): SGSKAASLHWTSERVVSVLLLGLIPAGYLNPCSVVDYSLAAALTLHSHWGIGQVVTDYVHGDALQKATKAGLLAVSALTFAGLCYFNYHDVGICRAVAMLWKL

With `O=C(O)CCC(=O)Nc1ccc(-c2nc3ccccc3[nH]2)cc1` [iGP-1], the “IIIQo (% change from DMSO)” value in data set [1] was -0.246%. Besides, in the data set on cortical synaptosomes (10 mM pyruvate), the “effect on basal or maximal respiration with pyruvate” value is on record as “no effect”. Besides, the “effect on basal and maximal respiration with glucose” value in the data set with cortical synaptosomes (15 mM glucose, no oxamate) is given as “no effect”. In addition, in data set [2], the “IIF (% change from DMSO)” value turned out to be 3.6%. Besides, in data set [3], the “effect on the soluble form of GPDH (cGPDH) activity” value is “did not inhibit”. In addition, the “ΔΨm with Glu + Mal + Nig (% change at 80 μM)” value in data set [4] (80 μM, 5 mM glutamate, 5 mM malate, with nigericin) is listed as 4%. For the same compound, in data set [4] (80 μM, 5 mM glutamate, 5 mM malate, without nigericin), the “ΔΨm with Glu + Mal (% change at 80 μM)” value is given as 15%. Besides, the “ΔΨm (% change from DMSO)” value in data set [4] (primary screen, ∼2.5 µM, average of duplicates, glutamate and malate) is reported as 0.154%. The “effect on ΔΨm powered by glutamate and malate” value in data set [4] (without or with nigericin) was “no effect”. Further, the “IF/DH (% change from DMSO)” value in data set [5] came to 4.1%.
